Experimental data: ChEMBL document CHEMBL2074144, “Pharmacokinetics of erythromycin in rabbit corneas after single-dose infusion: role of P-glycoprotein as a barrier to in vivo ocular drug absorption” (J Pharmacol Exp Ther, 2004)

Target: ATP-dependent translocase ABCB1 (Homo sapiens, UniProt P08183)
Experiment: TP_TRANSPORTER: transepithelial transport in MDR1-expressing MDCK cells
Assay type: functional, cell-based
Details: dog

Sequence of ATP-dependent translocase ABCB1 (P08183 whole entry): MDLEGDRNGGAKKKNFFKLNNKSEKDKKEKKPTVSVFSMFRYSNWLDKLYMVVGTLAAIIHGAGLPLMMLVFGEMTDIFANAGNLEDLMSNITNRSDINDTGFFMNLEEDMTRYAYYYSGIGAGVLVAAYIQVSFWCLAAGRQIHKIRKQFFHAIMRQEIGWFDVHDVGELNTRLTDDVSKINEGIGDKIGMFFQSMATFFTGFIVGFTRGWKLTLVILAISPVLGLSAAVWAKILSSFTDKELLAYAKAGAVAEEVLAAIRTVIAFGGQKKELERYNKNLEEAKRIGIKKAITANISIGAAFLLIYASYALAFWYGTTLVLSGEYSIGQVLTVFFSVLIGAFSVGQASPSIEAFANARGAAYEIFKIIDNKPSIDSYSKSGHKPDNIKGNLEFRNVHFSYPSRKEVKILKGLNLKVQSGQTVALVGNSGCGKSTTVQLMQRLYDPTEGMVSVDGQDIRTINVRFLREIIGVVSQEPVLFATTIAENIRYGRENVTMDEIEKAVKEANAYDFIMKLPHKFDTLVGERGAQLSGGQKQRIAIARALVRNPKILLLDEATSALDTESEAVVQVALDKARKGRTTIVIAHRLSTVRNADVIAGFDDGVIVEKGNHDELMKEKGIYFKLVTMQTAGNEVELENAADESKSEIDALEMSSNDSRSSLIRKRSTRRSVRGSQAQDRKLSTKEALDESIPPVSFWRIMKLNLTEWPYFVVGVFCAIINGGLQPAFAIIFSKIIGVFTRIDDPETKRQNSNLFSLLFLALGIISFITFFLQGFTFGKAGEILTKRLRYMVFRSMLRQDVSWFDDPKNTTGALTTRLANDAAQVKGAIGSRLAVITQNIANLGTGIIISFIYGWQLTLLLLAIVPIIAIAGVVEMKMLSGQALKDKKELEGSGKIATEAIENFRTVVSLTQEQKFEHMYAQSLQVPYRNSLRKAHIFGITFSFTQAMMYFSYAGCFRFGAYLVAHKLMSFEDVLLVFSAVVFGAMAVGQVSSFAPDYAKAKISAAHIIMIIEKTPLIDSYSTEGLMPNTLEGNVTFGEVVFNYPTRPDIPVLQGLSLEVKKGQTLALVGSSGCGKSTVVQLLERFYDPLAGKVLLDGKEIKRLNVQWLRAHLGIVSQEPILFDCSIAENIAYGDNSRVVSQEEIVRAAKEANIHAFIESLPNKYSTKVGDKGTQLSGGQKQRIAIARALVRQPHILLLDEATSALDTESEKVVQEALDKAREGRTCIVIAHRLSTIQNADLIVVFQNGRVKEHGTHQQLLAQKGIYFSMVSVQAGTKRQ

- Activity: substrate [+]
Structure (SMILES): CC[C@H]1OC(=O)[C@H](C)[C@@H](O[C@H]2C[C@@](C)(OC)[C@@H](O)[C@H](C)O2)[C@H](C)[C@@H](O[C@@H]2O[C@H](C)C[C@H](N(C)C)[C@H]2O)[C@](C)(OC)C[C@@H](C)C(=O)[C@H](C)[C@@H](O)[C@]1(C)O [CLARITHROMYCIN]
